Data taken from paper PMC12560097, “An injectable hydrogel containing N-acetylglycine for the treatment of Gaucher disease” (RSC Advances, 2025).

Target: T1, glucocerebrosidase (GCase; recombinant human-derived GBA/Glucosylceramidase, rGCase) (Homo sapiens, UniProt P04062)
T1 construct: gene GBA1; recombinant human-derived GBA/Glucosylceramidase (rGCase)
T1 sequence (P04062 40-536): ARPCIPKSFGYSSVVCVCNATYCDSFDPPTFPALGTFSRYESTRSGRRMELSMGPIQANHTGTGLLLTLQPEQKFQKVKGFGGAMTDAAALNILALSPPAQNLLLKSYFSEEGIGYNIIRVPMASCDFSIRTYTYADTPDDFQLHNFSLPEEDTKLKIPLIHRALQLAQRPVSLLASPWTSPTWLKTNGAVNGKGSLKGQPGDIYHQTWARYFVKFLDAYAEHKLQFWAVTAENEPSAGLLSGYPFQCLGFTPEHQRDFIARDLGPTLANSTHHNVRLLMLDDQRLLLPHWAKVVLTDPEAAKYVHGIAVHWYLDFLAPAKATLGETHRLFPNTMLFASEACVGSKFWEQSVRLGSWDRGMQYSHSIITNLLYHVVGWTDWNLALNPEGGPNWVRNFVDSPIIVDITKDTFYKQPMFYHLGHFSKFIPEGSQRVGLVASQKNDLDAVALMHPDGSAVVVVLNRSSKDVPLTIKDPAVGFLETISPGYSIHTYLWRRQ
Experiment: fluorogenic 4MU-β-Glc inhibition assay with recombinant GCase, pH […]
Format: biochemical

IC50: 48.5 µM
Compound: CC(=O)NCC(=O)O [NAG, N-acetylglycine]
